According to patent publication CN114306288A, “一种卡巴拉汀长效经皮吸收贴剂及其制备方法” (priority 2022, dated 2022):

Assay: In vitro transdermal permeation test (Franz horizontal two-chamber diffusion cell, pig ear skin)
Format: in vitro ADME
Conditions: Examples 33-38, compared with no enhancer; 0.1 g enhancer, 1 mmol rivastigmine salicylate ionic liquid in 2 g adhesive (Example 10); result in words

Question: With CCCCCCCC/C=C\CCCCCCCC(=O)O [油酸] as the compound, how does the “promotion of rivastigmine cumulative permeation amount by transdermal absorption enhancer” value read?
Answer: 没有显著促进

Question: For CC1CCC(C(C)C)C(O)C1 (centres unmarked) [薄荷醇], which “promotion of rivastigmine cumulative permeation amount by transdermal absorption enhancer” value is on record?
Answer: 没有显著促进
